Assay results taken from patent US20070049538A1, “METHODS FOR USING CUCURBITACIN COMPOUNDS” (SOUTH DAKOTA STATE UNIVERSITY, priority 2005, published 2007).

Key:
HSC-T6 cells [1] = test: Serum-driven HSC-T6 proliferation, experiment 3 (24 h, proliferating cells); type: cell-based, rat; settings: HSC-T6, 24 h, proliferating cells; read-out: Experiment 3 EC50 (A)
Description: To overcome this problem, the amount of incubation time was increased to 24 h, and cucurbitacin activity measured on starved (Exp. 2) or proliferative (Exp. 3) cells (Table 8). Cells turned quiescent when serum was not supplemented for one day (Exp. 2). Activity of a few compounds was monitored on quiescent cells, and their activity compared to the ones measured on proliferating cells (Exp. 3).
We established several experimental conditions such as 4 hours of incubation time with cucurbitacin, and 2 day cell incubation with fresh media after challenging with cucurbitacin (Exp. 1). Other experiments involved addition of cucurbitacin for 24 hours over starved cells (Exp. 2) vs. proliferating cells (Exp. 3), and one day incubation of cells with fresh media after challenge. The 4 hour incubation period with cucurbitacin triggered anti-proliferation effect. This effect, however, was hindered by a second cycle of cell proliferation during the two-day cell growth period (see silybin, E and I glucosides, and for I-nPr). […] Because of that, the challenge time was increased to 24 hours (Exp. 2 and 3).
In experiment 3, only 40% of the cells divided. The ratio of EC50 values for exp. 2 and exp. 3 varied between 3.6 and 12.7. This may indicate differential cytotoxicity of silybin and cucurbitacin analogs over quiescent and active stellate cells. In other words, compounds show higher anti-proliferative activity on active cells than on quiescent cells.

[2] = Chromatographic hydrophobicity index (CHI) by RP-HPLC in buffered acetonitrile; type: physicochemical; design: key: CHI = φ0 (isocratic hydrophobicity index), = A·tR + B; ACN % scale; settings: for CHIACN1: buffered acetonitrile pH 7.0, Alltima C18 250 mm, Eq. (2) from isocratic φ0; for CHIACN2: buffered acetonitrile pH 7.0, Eq. (3) calibrated against published CHI
Description: (§1) We used Dynamax liquid chromatograph (Varian Chromatography Systems) with PDA-2 photodiode array UV detector, controlled by the Dynamax PC Chromatography Data System (v. 1.9) software and Dynamax dual pump solvent delivery system, model SD-200. […] Cucurbitacins analytical separation was optimized on Alltima C18 (Alltech; 250 mm×4.6 mm, 5 μm) HPLC column, at gradient elution in acetonitrile (ACN, 30-70% ACN in 57 min), and in MeOH (60-75% MeOH in 50 min). Cucurbitacins stock concentration of 10^−2M in DMSO:ethanol (1:1) was standardized against pure cucurbitacin I (Indofine Chemical Company, Hillsborough, N.J.) by analytical HPLC means. Compounds CHI was measured in both ACN, by using Alltima C18 column, and in MeOH, by using Econosil C18 column (Alltech; 150 mm×4.6 mm, 5 μm). Analytical separations were conducted at a flow rate of 1 ml/min. The aqueous phase was buffered for the CHI measurement. For this purpose, solid ammonium acetate (Fisher Sci. Co., Fair Lawn, N.J.) was dissolved in deionized distilled water at 50 mM final concentration and its pH adjusted to 7.0.
All standard compounds were purchased from Acros (Acros Organics, NJ). The chromatographic lipophilicity or hydrophobicity was determined applying Valkó's technique (Valkó et al., Anal. Chem. 69 (1997) 2022, the entire disclosure of which is herein incorporated by reference). A standard mixture of seven compounds was prepared in solution: theophylline (compound 19), benzimidazole (compound 20), acetophenone (compound 21), indole (compound 22), propiophenone (compound 23), butyrophenone (compound 24), and valerophenone (compound 25). […] The retention factor, log k=log((tR-t0)/t0), was calculated for each analyte from five good injections of […] sample. The dead time (t0) was measured by injecting NaNO3 together with the sample. Then, the log k values were plotted against isocratic ACN concentrations to establish the linear regression equations for each analyte. From each straight line the isocratic hydrophobicity index was computed, φ0=(intercept/slope). Further, the calibration mixture was injected at fast gradient elution, 0-22 min 0-100% ACN, and three additional minutes at 100% ACN. The φ0 values for the test compounds were plotted against gradient retention time and the linear equation determined from the following equation: φ0=CHI=AtR+B (1)
The gradient elution conditions were similar to the one from the first approach.
(§2) Cucurbitacins lipophilicity was measured by RP-HPLC. […] Due to its high viscosity, aqueous MeOH required a shorter column than the one applied for ACN. First, the C18 columns were calibrated against a standard mixture, and the relationships established between the fast gradient tR and φ0 or published CHI (see Eqs. (2)-(4) from Table 2). Second, cucurbitacins were injected at fast gradient elution under similar conditions, and their CHI calculated (Table 4) from Eqs. (2)-(4). Eqs.

HSC-T6 cells [3] = test: Serum-driven HSC-T6 proliferation, experiment 1 (4 h challenge, two days drug-free growth); type: cell-based, rat; settings: for EC50: HSC-T6, 4 h challenge, then two days drug-free media
Description: The proliferation effect of serum on HSC-T6 cells was optimized and cucurbitacin antiproliferative activity was measured. Serum contains a large number of growth factors, hormones and other nutrients, which help cells to grow and multiply. Several trials were conducted. In experiment 1, cells were challenged with cucurbitacin analogs for 4 h and then cells were grown in drug-free media for two additional days.
HSC-T6 cells were photographed under phase-contrast microscope to record possible changes in cell morphology during experiment 1. […] We are monitoring specifically the effect of compound on the cells, cell recovery after 4 h challenge, and relative cell proliferation. […] Live cells are quantified at the end of the assay (row 4) with MTT dye.
We established several experimental conditions such as 4 hours of incubation time with cucurbitacin, and 2 day cell incubation with fresh media after challenging with cucurbitacin (Exp. 1). Other experiments involved addition of cucurbitacin for 24 hours over starved cells (Exp. 2) vs. proliferating cells (Exp. 3), and one day incubation of cells with fresh media after challenge. […] Because of that, the challenge time was increased to 24 hours (Exp. 2 and 3).
We modified this approach. Our assay included a second control (ZC) supplemented with no serum intended to measure cucurbitacin anti-proliferation effect relative to the number of cells generated during challenge instead of the total number of cells present in each well.

HSC-T6 cells [4] = test: Cytotoxicity on HSC-T6 cells (experiment 3); type: cell-based, rat; settings: read-out: Experiment 3 IC50 (T)
From the text: Cytotoxicity of all cucurbitacin analogs was additionally measured in experiment 3 (Table 8).

HepG2 cells [5] = test: Cucurbitacins cytotoxicity on HepG2 cells (MTT viability assay); type: cell-based, human
Description: HepG2 (human hepatocellular carcinoma, ATCC) cells were grown in EMEM (Gibco, Grand Island, N.Y.) supplemented with 10% fetal bovine serum (FBS), and 1% penicillin/fungizone mixture (Gibco). Thabrew's optimized procedure (Thabrew et al., J. Pharm. Pharmcol. 49 (1994) 1442, the entire disclosure of which is herein incorporated by reference) was followed. Cells were batch cultured for 10 days, then seeded at concentration of 30,000 cells/well in fresh media in 96-well microtiter plastic plates at 37° C. for a day. Then cells were exposed to different concentrations of cucurbitacins at final volume of 100 μl/well. Five-fold serial dilution of compounds was carried out in the plate for five consecutive wells. After 24 h of incubation with chemicals, live cells were visualized using the MTT viability assay (Promega, Madison, Wis.). The absorbance was measured at 570 nm. Negative (without cells) and positive (without test chemicals) controls were also incubated with each plate. […] At least three reproducible experiments were performed per compound with three replicate wells per concentration.
Cells were challenged with cu-curbitacins at various concentrations for a day and then live cells quantified with MTT dye. This period of time measures exclusively compounds cytotoxicity, while longer incubation time may lead to interference from metabolites.

[6] = Chromatographic hydrophobicity index (CHI) by RP-HPLC in buffered methanol; type: physicochemical; settings: for CHIMeOH: buffered methanol pH 7.0, Econosil C18 150 mm, Eq. (4)
Description: as §1
A standard mixture of 10 compounds including 19-21, 23-27, aniline (compound 28) and bromobenzene (compound 29), dissolved in MeOH, was injected at five isochratic elution, at 40, 45, 50, 55, and 60% MeOH. Then the mixture was injected at fast gradient elution to establish the correlation from Eq. (1). The fast linear gradient elution was optimized for 30-100% MeOH in aqueous buffer with 10 min runtime.
as §2

HepG2 cells [7] = test: cells; settings: for EC50: read-out: EC50 cytoprotection, Table 7, HepG2 against CCl4 toxicity, estimated
From the text: Experimental conditions were standardized on silybin. […]
The ratio of IC50-to-EC50 (hereafter T/A) is also indicated in this table, which gives the margin between toxic and cytoprotective concentrations.

SMILES	EC50 (HSC-T6 cells [1]) [µM]	CHIACN1 [2]	CHIACN2 [2]	Experiment 1 anti-proliferation activity (HSC-T6 cells [3]; measured at 2-6 μM)	IC50 (HSC-T6 cells [4]) [µM]	IC50 (HepG2 cells [5]; Table 4, 24 h incubation, MTT) [µM]	IC50 (HepG2 cells [5]; Table 5) [µM]	CHIMeOH [6]	EC50 (HSC-T6 cells [3]) [µM]	cytoprotection on HepG2 cells (HepG2 cells [7]; at 6.25% of IC50, against CCl4)	cytoprotection on HepG2 cells (HepG2 cells [7]; at 12.5% of IC50, against CCl4)	cytoprotection on HepG2 cells (HepG2 cells [7]; at 20% of IC50, against CCl4)	cytoprotection on HepG2 cells (HepG2 cells [7]; at 50% of IC50, against CCl4)	EC50 (HepG2 cells [7]) [µM]	IC50 (HepG2 cells [5]; Table 7) [µM]	Experiment 1 anti-proliferation activity (HSC-T6 cells [3]; measured at 100 μM)	CHIMeOH (b) ([6]; standard compounds, isochratic and gradient elution of standard mixture)
CCCOC1=CC2C(=CCC3C2(C)C(=O)CC2(C)C(C(C)(O)C(=O)C=CC(C)(C)O)C(O)CC32C)C(C)(C)C1=O (stereo not shown) [I-nPr]	0.33	75.92	83.13	˜18%^b^	2.5	5	5 ± 0.5	72.88	–	–	–	–	–	–	–	–	–
CC(C)(O)/C=C/C(=O)[C@](C)(O)[C@H]1[C@H](O)C[C@@]2(C)[C@@H]3CC=C4[C@@H](C=C(O)C(=O)C4(C)C)[C@]3(C)C(=O)C[C@]12C [I, cucurbitacin I]	0.02	63.27	63.53	–	3.6	15.8	15.8 ± 6.7	63.86	0.36	4.55 ± 0.64	17.50 ± 1.32	50.09 ± 1.02	54.75 ± 0.29	3.2	15.8	–	–
CCCOC1=CC2C(=CCC3C2(C)C(=O)CC2(C)C(C(C)(O)C(=O)C=CC(C)(C)OC(C)=O)C(O)CC32C)C(C)(C)C1=O (stereo not shown) [E-nPr]	0.34	88.34	102.37	–	2.8	–	–	77.66	2.28	–	–	–	–	–	–	–	–
CC(=O)OC(C)(C)C=CC(=O)C(C)(O)C1C(O)CC2(C)C3CC=C4C(C=C(OC(C)C)C(=O)C4(C)C)C3(C)C(=O)CC12C (stereo not shown) [E-iPr]	0.32	86.84	100.04	–	2.5	4.3	4.3 ± 0.5	76.30	2.13	−0.60 ± 1.11	−7.81 ± 0.68	−7.00 ± 0.17	−32.99 ± 1.70	–	–	–	–
CCOC1=CC2C(=CCC3C2(C)C(=O)CC2(C)C(C(C)(O)C(=O)C=CC(C)(C)OC(C)=O)C(O)CC32C)C(C)(C)C1=O (stereo not shown) [E-Et]	0.27	82.76	93.73	–	3.5	5.1	5.1 ± 0.9	74.25	5.6	–	–	–	–	–	–	–	–
CC(C)(O)/C=C/C(=O)[C@](C)(O)C1[C@H](O)C[C@@]2(C)C3CC=C4C(C=C(O[C@@H]5O[C@H](CO)[C@@H](O)[C@H](O)[C@H]5O)C(=O)C4(C)C)[C@]3(C)C(=O)C[C@]12C (stereo partly shown) [I-Gluc, cucurbitacin I glucoside]	4.15	46.48	37.50	–	256	390 ± 10	390 ± 10	56.41	–	–	–	–	–	–	–	˜20%^a^	–
CC(C)(O)/C=C/C(=O)C(C)(O)C1C(O)CC2(C)C3CC=C4C(CC(=O)C(O)C4(C)C)C3(C)C(=O)CC12C (stereo not shown) [iso-D]	0.06	60.59	59.37	–	8.7	80.3	80.3 ± 3.5	62.27	2.13	–	–	–	–	13.8	80.3	–	–
Nc1ccccc1 [Aniline (28), aniline, reference compound]	–	–	–	–	–	–	–	–	–	–	–	–	–	–	–	–	29.94 ± 0.05
